Series [1] addresses T1, human 5-HT1A (Homo sapiens, UniProt P08908).
T1 sequence (P08908 1-422): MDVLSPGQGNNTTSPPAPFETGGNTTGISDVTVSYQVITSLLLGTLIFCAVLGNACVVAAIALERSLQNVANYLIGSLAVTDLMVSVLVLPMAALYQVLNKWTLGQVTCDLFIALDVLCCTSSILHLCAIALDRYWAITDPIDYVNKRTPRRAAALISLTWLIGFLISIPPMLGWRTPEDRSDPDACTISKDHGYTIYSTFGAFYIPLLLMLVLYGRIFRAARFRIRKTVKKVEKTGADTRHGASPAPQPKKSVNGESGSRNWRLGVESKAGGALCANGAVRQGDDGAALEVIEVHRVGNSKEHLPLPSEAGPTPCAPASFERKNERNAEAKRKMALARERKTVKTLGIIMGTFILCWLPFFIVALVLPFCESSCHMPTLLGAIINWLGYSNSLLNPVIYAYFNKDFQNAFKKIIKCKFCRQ
The series is described as follows: 5-HT1A-mediated cAMP reduction assay (GloSensor, HEK293-T). To be noted: cAMP, 5-HT1A WT.

The target in series [2] is T2, OCT2 (Homo sapiens, UniProt O15244).
T2 construct: expressed in transfected cells; host or cells: Flp-In T-Rex cell line (ThermoFisher), tetracycline-induced
T2 sequence (O15244 1-555): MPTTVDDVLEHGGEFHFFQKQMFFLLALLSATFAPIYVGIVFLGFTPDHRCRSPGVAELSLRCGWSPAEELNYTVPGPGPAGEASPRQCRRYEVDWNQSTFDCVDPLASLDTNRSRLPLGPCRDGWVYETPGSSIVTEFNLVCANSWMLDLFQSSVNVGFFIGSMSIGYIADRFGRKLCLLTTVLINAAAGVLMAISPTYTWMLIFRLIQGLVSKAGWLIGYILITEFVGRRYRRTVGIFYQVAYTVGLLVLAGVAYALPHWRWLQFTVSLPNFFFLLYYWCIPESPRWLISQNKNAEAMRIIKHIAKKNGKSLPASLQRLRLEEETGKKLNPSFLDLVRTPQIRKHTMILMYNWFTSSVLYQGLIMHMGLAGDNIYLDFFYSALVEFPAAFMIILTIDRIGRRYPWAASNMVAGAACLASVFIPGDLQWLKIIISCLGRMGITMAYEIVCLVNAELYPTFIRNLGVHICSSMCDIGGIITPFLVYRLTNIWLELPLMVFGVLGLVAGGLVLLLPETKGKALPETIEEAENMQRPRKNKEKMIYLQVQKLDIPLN
The series is described as follows: OCT2 uptake inhibition. The format is cell-based. To be noted: compared with 5-HT1A. As for the experimental part:
Inducible cell lines stably expressing OCT1, OCT2, or PMAT were generated using the Flp-In T-Rex cell line (ThermoFisher) according to manufacturer recommendations. Cells were maintained in DMEM supplemented with 10% FBS, 100 μg/ml hygromycin B (GoldBio), and 10 μg/ml blasticidin (GoldBio). To measure uptake inhibition, cells were seeded into poly-L-lysine coated clear-bottom 384-well plates at a density of 25,000 cells per well in DMEM containing 10% FBS and 2 μg/ml of tetracycline (Sigma) to induce transporter expression. […] Cells were incubated with drug for 30 min at 37° C. Fluorescent substrate was then added to the cells. […] Cells were incubated with respective substrates for an hour at 37° C. OCT2 cells were read directly in a Victor NIVO plate reader using 495 nm excitation and 580 emission filter for 0.1 s. OCT1 and PMAT cells were washed in HBSS supplemented with 20 mM HEPES pH 7.4 before reading in a Victor NIVO plate reader using 435 nm excitation and 480 nm emission filter for 0.1 s.

Series [3] concerns mice. The series is described as follows: Open field locomotor activity. Type of series: in vivo, mouse.
Series [4] deals with C57BL/6J mice. Nature of the series: Sucrose preference test after chronic social defeat stress. Type of series: in vivo, mouse. To be noted: stressed mice. The text has this:
The sucrose preference test is a volitional two-bottle choice procedure in which mice are given the choice between consuming water and a 1% sucrose solution. This paradigm has been used extensively to assess the effects of stress-induced anhedonia. On day 10 of CSDS mice were individually housed and habituated to two bottles containing just water. Twenty-four hours later, following the SI test, one bottle was replaced with a 1% sucrose solution (w/v) made with water from the animal vivarium. Mice had ad libitum overnight access to both bottles and preference for sucrose over water was calculated as follows: [sucrose/(sucrose+water)*100]. Data were averaged from two independent experiments. A total of 27 mice were administered vehicle (9 control, 18 stress), 27 received 4-F, 5-MeO-PyrT (9 control, 18 stress), 15 received WAY-100635 (5 control, 10 stress), and 15 received 4-F, 5-MeO-PyrT+WAY-100635 (5 control, 10 stress). More animals were used for the stressed groups due to the inherent resilience of mice to social defeat stress (Krishnan et al. 2007). Analysis of different treatment conditions of control and stressed animals was done in GraphPad Prism using two-way ANOVA.

Series [5] can be described thus: Mouse brain tissue binding. To be noted: for fraction unbound: mouse, brain tissue. The format is in vitro ADME.
Series [6] concerns the target T3, 5-HT1A N386V (Homo sapiens, UniProt P08908, N386V).
T3 construct: expressed in transfected cells; host or cells: HEK293-T
T3 sequence (P08908 1-422 N386V): T1 sequence (P08908 1-422) with N386V
Nature of the series: Gi1 BRET at mutant 5-HT1A N386V. The format is cell-based. To be noted: Gi1 BRET, 5-HT1A N386V^7.39.

The term EC50 denotes the midpoint of the concentration-response curve. What is called pEC50 is −log10 of the EC50, conventionally taken in molar units. A high value points to a small EC50.

Molecules are shown by their SMILES. Numbering of substitutions follows the chain as printed. Like-named read-outs stand apart in the source and are kept apart here.

Take `COc1ccc2[nH]cc(CCN3CCCC3)c2c1F` [4-F, 5-MeO-PyrT, 4-Fluoro, 5-methoxypyrrolidinyl-tryptamine]: the EC50 in series [1] was 0.03 nM; in series [6] (read-out: EC50) it was 3 nM. In addition, the pEC50 is 10.5 in series [1] and “(8.52,” in series [6]. Besides, the “activity at other neurotransmitter transporters (OCT2)” value in series [2] is listed as “substantially lower activity”. In series [3] (mice, s.c.), the “lowest dose producing suppression of locomotion” value amounted to 0.03 mg/kg. The “sedative effects after WAY-100635 pretreatment” value in series [3] (open field, WAY-100635 1 mg/kg s.c. 15 min prior, compound 1 mg/kg s.c.) was “negates the sedative effects”. Besides, the “effect on sucrose preference under WAY-100635 co-administration” value in series [4] is given as “reversed the effects”. In series [4] (relative to vehicle-treated animals), the sucrose preference result is given as “significantly increased sucrose preference”. Moreover, in series [5], the brain tissue binding was 82.5%. The compound further displayed a recovery in series [5] of 88%. Further, the “% Compound remaining at 4 h” value in series [5] (4 h) was determined as 96%. Also, the fraction unbound is 0.175 in series [5] (read-out: % Bound Mean (converted)); 0.175 in series [5] (read-out: % Unbound); 0.175 in series [5] (read-out: fu); 0.157 in series [5] (replicate R1, read-out: % Bound R1 (converted)); 0.193 in series [5] (replicate R2, read-out: % Bound R2 (converted)).

The values above are taken from patent publication US20260034119A1, “5-METHOXY-N,N-[…][…], THEIR […], AND METHODS FOR TREATMENT OF NEUROLOGICAL, […], AND SUBSTANCE USE DISORDERS” (priority 2023, published 2026).
